{"source": "paper PMC10746543", "about": "“Design principles for cyclin K molecular glue degraders” (Nature Chemical Biology, 2023)", "key": {"CDK2–cyclin A": {"molecular_target": "T1, CDK2–cyclin A (Homo sapiens, UniProt P24941)", "T1 construct": "purchased Thermo Fisher", "experiment": "Lanthascreen kinase binding assay, CDK2", "settings": "for Lanthascreen signal, sheet CDK2: raw replicates, experiment r36-r46", "experimental": "Lanthascreen experiments were performed using commercially available reagents (Thermo Fisher) and according to the manufacturer’s instructions."}, "CDK12–cyclin K and DDB1": {"molecular_target": "T2, CDK12–cyclin K and DDB1 (Homo sapiens, UniProt Q16531+Q9NYV4, K965R)", "T2 construct": "His6–CDK12 (a.a. 713–1,052); full-length or beta-propeller B domain deletion (ΔBPB: a.a. 396–705 deleted) constructs of His6–DDB1ΔBPB, StrepII–Avi–DDB1, or His6–Spy–DDB1; made in house; host or cells: Trichoplusia ni High Five insect cells (baculovirus)", "T2 sequence (Q9NYV4 713-1052 K965R)": "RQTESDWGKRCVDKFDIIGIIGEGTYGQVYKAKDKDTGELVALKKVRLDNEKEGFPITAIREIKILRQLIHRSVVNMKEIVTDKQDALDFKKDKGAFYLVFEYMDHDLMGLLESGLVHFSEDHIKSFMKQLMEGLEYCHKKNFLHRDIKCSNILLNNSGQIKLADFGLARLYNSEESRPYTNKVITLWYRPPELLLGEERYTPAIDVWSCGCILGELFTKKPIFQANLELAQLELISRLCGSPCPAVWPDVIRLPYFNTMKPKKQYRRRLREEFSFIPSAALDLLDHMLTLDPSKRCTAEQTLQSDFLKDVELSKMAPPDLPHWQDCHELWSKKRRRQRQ", "T2 sequence (O75909 1-267 partner)": "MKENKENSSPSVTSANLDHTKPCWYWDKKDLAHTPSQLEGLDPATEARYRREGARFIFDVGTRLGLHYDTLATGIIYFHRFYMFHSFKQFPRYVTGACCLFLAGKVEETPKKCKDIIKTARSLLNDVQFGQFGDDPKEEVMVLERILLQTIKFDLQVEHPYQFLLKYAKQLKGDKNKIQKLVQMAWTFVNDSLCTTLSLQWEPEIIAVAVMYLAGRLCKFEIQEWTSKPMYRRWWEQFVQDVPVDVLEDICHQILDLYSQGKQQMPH", "T2 sequence (Q16531 whole entry)": "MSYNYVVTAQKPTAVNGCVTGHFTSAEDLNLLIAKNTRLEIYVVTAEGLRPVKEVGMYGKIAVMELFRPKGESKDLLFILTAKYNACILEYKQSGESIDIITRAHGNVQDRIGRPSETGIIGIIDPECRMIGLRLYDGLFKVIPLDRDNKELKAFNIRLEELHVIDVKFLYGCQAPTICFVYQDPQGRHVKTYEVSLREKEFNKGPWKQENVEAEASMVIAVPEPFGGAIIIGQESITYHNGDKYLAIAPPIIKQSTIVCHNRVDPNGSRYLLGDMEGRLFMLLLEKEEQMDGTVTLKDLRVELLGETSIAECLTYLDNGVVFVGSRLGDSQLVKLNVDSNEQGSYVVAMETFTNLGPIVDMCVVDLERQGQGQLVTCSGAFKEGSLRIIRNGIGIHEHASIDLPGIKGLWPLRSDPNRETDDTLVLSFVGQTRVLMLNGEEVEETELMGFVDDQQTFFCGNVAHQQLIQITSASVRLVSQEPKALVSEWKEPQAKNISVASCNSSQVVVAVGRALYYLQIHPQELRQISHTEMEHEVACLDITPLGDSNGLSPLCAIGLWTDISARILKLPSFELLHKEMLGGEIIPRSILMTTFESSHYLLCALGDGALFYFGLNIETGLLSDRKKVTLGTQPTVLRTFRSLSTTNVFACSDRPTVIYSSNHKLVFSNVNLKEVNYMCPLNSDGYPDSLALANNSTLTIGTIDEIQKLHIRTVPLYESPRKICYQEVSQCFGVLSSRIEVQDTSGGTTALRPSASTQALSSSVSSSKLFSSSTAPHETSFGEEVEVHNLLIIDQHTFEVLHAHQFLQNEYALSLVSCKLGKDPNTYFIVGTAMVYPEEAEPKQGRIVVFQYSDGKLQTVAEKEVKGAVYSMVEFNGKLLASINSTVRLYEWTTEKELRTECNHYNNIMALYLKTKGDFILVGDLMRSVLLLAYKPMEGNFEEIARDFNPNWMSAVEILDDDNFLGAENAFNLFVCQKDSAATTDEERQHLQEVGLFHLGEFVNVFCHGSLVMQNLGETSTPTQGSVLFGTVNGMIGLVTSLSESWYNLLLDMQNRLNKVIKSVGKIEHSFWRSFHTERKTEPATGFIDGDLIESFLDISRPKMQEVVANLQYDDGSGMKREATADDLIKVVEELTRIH", "experiment": "TR-FRET ternary complex formation assay (compound titration)", "type": "binding", "summary_of_the_method": "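Signal was the ratio of 520 nm to 490 nm fluorescence, measured after a 70 μs delay that reduced background.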"}, "[1]": {"system": "cyclin K–eGFP degradation reporter", "experiment": "Cyclin K reporter stability analysis (dual-color cyclin K–eGFP reporter)", "type": "cell-based, human", "settings": "source data sheet correlations; read-out: DC50", "summary_of_the_method": "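Cells (HEK293T–Cas9, reporter-expressing) at 1 × 10^6 ml^−1; 5 h compound or DMSO; flow cytometry; gMFI eGFP ÷ mCherry on round mCherry-positive events; normalized to 3 DMSO controls.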"}}, "note": "Where “and” joins values, the source holds several entries; their conditions need not be identical. Equal entries are not always repeated. Where two headings read alike, the source gives them in different places.", "data": [{"compound": "CC[C@H](CO)Nc1nc(NCc2nc3cc(Cl)c(Cl)cc3[nH]2)c2ncn(C(C)C)c2n1", "note": "[DS17]", "values": [{"measurement": "Lanthascreen signal, sheet CDK2", "setting": "CDK2–cyclin A; Compound 0.038147 nM", "result": "0.01335 and 0.01346"}, {"measurement": "Lanthascreen signal, sheet CDK2", "setting": "CDK2–cyclin A; Compound 0.152588 nM", "result": "0.01372 and 0.01373"}, {"measurement": "Lanthascreen signal, sheet CDK2", "setting": "CDK2–cyclin A; Compound 0.610352 nM", "result": "0.01335 and 0.01333"}, {"measurement": "Lanthascreen signal, sheet CDK2", "setting": "CDK2–cyclin A; Compound 9.76563 nM", "result": "0.01387 and 0.01379"}, {"measurement": "Lanthascreen signal, sheet CDK2", "setting": "CDK2–cyclin A; Compound 39.0625 nM", "result": "0.01306 and 0.01354"}, {"measurement": "Lanthascreen signal, sheet CDK2", "setting": "CDK2–cyclin A; Compound 156.25 nM", "result": "0.01303 and 0.01259"}, {"measurement": "Lanthascreen signal, sheet CDK2", "setting": "CDK2–cyclin A; Compound 625 nM", "result": "0.01178 and 0.01167"}, {"measurement": "Lanthascreen signal, sheet CDK2", "setting": "CDK2–cyclin A; Compound 2500 nM", "result": "0.01002 and 0.01073"}, {"measurement": "Lanthascreen signal, sheet CDK2", "setting": "CDK2–cyclin A; Compound 10000 nM", "result": "0.0065 and 0.006945"}, {"measurement": "IC50", "setting": "CDK2–cyclin A; Supplementary Table 2, read-out: Lanthascreen IC50 [nM] CDK2", "result": 10300, "unit": "nM"}, {"measurement": "TR-FRET signal at compound concentration 0.468 nM", "setting": "CDK12–cyclin K and DDB1; compound concentration 0.468 nM, raw replicate titration data", "result": "0.2691 and 0.2681 and 0.2563 and 0.2452"}, {"measurement": "TR-FRET signal at compound concentration 2.16 nM", "setting": "CDK12–cyclin K and DDB1; compound concentration 2.16 nM, raw replicate titration data", "result": "0.3644 and 0.3794 and 0.3582 and 0.3855"}, {"measurement": "TR-FRET signal at compound concentration 3.6 nM", "setting": "CDK12–cyclin K and DDB1; compound concentration 3.6 nM, raw replicate titration data", "result": "0.5749 and 0.6382 and 0.6238 and 0.6481"}, {"measurement": "TR-FRET signal at compound concentration 7.92001 nM", "setting": "CDK12–cyclin K and DDB1; compound concentration 7.92001 nM, raw replicate titration data", "result": "1.103 and 1.253 and 1.275 and 1.336"}, {"measurement": "TR-FRET signal at compound concentration 15.84 nM", "setting": "CDK12–cyclin K and DDB1; compound concentration 15.84 nM, raw replicate titration data", "result": "2.342 and 2.592 and 2.673 and 2.949"}, {"measurement": "TR-FRET signal at compound concentration 30.96 nM", "setting": "CDK12–cyclin K and DDB1; compound concentration 30.96 nM, raw replicate titration data", "result": "3.985 and 4.064 and 4.264 and 4.269"}, {"measurement": "TR-FRET signal at compound concentration 62.6401 nM", "setting": "CDK12–cyclin K and DDB1; compound concentration 62.6401 nM, raw replicate titration data", "result": "4.135 and 4.141 and 4.254 and 4.343"}, {"measurement": "TR-FRET signal at compound concentration 125.28 nM", "setting": "CDK12–cyclin K and DDB1; compound concentration 125.28 nM, raw replicate titration data", "result": "4.238 and 4.311 and 4.291 and 4.347"}, {"measurement": "TR-FRET signal at compound concentration 244.8 nM", "setting": "CDK12–cyclin K and DDB1; compound concentration 244.8 nM, raw replicate titration data", "result": "4.1978 and 4.255 and 4.25 and 4.345"}, {"measurement": "TR-FRET signal at compound concentration 993.601 nM", "setting": "CDK12–cyclin K and DDB1; compound concentration 993.601 nM, raw replicate titration data", "result": "4.229 and 4.264 and 4.321 and 4.299"}, {"measurement": "TR-FRET signal at compound concentration 2001.6 nM", "setting": "CDK12–cyclin K and DDB1; compound concentration 2001.6 nM, raw replicate titration data", "result": "4.223 and 4.116 and 4.3288 and 4.427"}, {"measurement": "EC50", "setting": "CDK12–cyclin K and DDB1; in vitro complex formation, 50 nM CDK12–cyclin K, 100 nM DDB1, text and figures, read-out: TR-FRET EC50", "result": "13 ± 0.3", "unit": "nM"}, {"measurement": "EC50", "setting": "CDK12–cyclin K and DDB1; sheet MOESM7, read-out: log TR-FRET EC50 (converted)", "result": 13.2, "unit": "nM"}, {"measurement": "EC50", "setting": "CDK12–cyclin K and DDB1; source data sheet correlations, read-out: TR-FRET EC50", "result": 13.2, "unit": "nM"}, {"measurement": "DC50", "setting": "[1]", "result": 12, "unit": "nM"}]}]}
